# Experiments:
# GST-hRIPK1 (8-327) [1] = target: T1, GST-hRIPK1 (8-327) (Homo sapiens (Human), UniProt Q13546); assay: ADP-Glo kinase assay; assay type: biochemical
# Description: GST-hRIPK1 (8-327) enzyme was generated by Proteros GmbH by Baculovirus expression system.
# Test compounds were diluted in DMSO and 0.1 μL of solution was dispensed to each well of a 384-well white solid microplate. The assay buffer was 50 mM HEPES pH 7.5, 50 mM NaCl, 30 mM MgCl2. The buffer was supplemented with 0.02% CHAPS, 0.01% of Pluronic F127, 0.1 mg/mL BSA and 1 mM DTT. MnCl2, 5 mM, was included in the assay buffer on the day of the experiment. The enzymatic reaction comprised 1.5 μg/mL GST-hRIPK1 (8-327) and 50 μM ATP for receptor interacting protein kinase 1 and 15 μM ATP. 5 μL of enzyme and 5 μL of ATP were added to the plate at twice the final assay concentration and incubated at room temperature for 3 hours. Following this reaction, 10 μL of ADP-Glo reagent (Promega) was added to each well and incubated for 40 min at room temperature. This stops the kinase reaction and depletes any remaining ATP. 20 μL of ADP-Glo detection reagent was then added to each well and incubated at room temperature for at least 15 minutes. The detection reagent converts ADP to ATP and introduces luciferase and luciferin to detect ATP. The luminescence is then measured with the Envision (PerkinElmer) plate reader. Test compound inhibition was expressed as percent inhibition of internal assay controls. For concentration response curves, normalized data is fit and IC50 determined using XL-fit (IDBS) for Excel. The IC50 were averaged to determine a mean value, for a minimum of two independent experiments.
# Test compound inhibition was expressed as percent inhibition of internal assay controls. For concentration response curves, normalized data is fit and IC50 determined using XL-fit (IDBS) for Excel. The IC50 were averaged to determine a mean value, for a minimum of two independent experiments.
# [2] = male, cynomolgus monkey, in vivo, iv
# [3] = system: human cryopreserved hepatocytes; assay: Metabolic stability (hepatocytes); details: human cryopreserved hepatocytes
# Description: The metabolic stability of compounds was evaluated in human cryopreserved hepatocytes (BioreclamationlVT, NY, USA) in duplicate. Test articles (or controls) were added to a 24-well incubation plate (Becton Dickinson Labware, USA) containing 0.5×10^6 hepatocytes/mL in suspension. The plate was held at 37° C. and agitated with constant orbital shaking (orbital speed at 350 rpm). At each time point (0, 5, 10, 15, 20, 30, 45, 60, 90, 120, 150 and 180 min) a Tecan Evo robot aspirated 50 μL of the incubation mixture and 100 μL of acetonitrile containing internal standard to quench the reaction. […] Samples were centrifuged (3000 rpm for 10 minutes) and the plate sealed prior to injection onto an LC-MS/MS system.
# The appropriate parent/daughter ions were monitored for the test article and IS with the LC-MS/MS system. The intrinsic clearance (Clint; expressed μL/min/million cells) was determined from the first order elimination constant (k, min^−1) of test article decay and the volume of the incubation. […] The intrinsic organ CL was then converted to the hepatic clearance (CLhep) using the well-stirred model as shown below, where Qh is human hepatic blood flow.
# Hepatic clearance is expressed as mL/min/kg. The hepatic clearance relates to the flow of blood through the liver that is completely cleared of the compound.
# [4] = male, Sprague-Dawley Crl:CD(SD), in vivo, iv
# P-gp (MDR1) = assay: MDCKII-MDR1 permeability, efflux ratio; assay type: in vitro ADME; details: dog, MDCK-MDR1, pH 7.4, MDCKII-MDR1, 3 μM, read-out: ER MDR1
# Description: The blood brain barrier (BBB) separates circulating blood from the extracellular fluid of the central nervous system (CNS). The passive membrane permeability (Papp) and the P-gp (P-glycoprotein) substrate efflux potential were determined using the MDCKII-MDR1 cell line as an in vitro model of the effective permeability of a compound through the BBB. A bidirectional assay (Apical to Basolateral (A→B) and Basolateral to Apical (B→A)), in the absence and in the presence of GF120918 (a P-gp inhibitor) was conducted using pre-plated MDCKII-MDR1 cells (Corning HTS Transwell-96) obtained from SOLVO Biotechnology. The assay was run at 3 μM for 90 min (minutes) in triplicate using a HBSS+12.5 mM HEPES pH 7.4 transport buffer. Following incubation of samples from donor and receiver, wells were removed and measured by LC-MS/MS. Samples were extracted by protein precipitation with acetonitrile containing an appropriate internal standard (IS) having a known mass and molecular weight. The precipitate was centrifuged for 10 min at 3000 rpm (revolutions per minute). The supernatants were then collected, diluted if necessary, and injected on to the LC-MS/MS system. […] Papp (apparent permeability expressed in nm/sec [nanometer/second]) values were calculated according to the following equation: […]
# Where dQ/dt is the permeability rate, C0 is the initial concentration in the donor solution (expressed as IS ratio), A and B are the surface areas of the filter (the surface area of the cell monolayer).
# Monolayer efflux ratios (ER) were derived using the following equation: […]
# GST-hRIPK1 (8-327) [5] = target: T1, GST-hRIPK1 (8-327); assay: Fluorescent Polarization Binding (FP Binding) assay
# T1 sequence (Q13546 8-327): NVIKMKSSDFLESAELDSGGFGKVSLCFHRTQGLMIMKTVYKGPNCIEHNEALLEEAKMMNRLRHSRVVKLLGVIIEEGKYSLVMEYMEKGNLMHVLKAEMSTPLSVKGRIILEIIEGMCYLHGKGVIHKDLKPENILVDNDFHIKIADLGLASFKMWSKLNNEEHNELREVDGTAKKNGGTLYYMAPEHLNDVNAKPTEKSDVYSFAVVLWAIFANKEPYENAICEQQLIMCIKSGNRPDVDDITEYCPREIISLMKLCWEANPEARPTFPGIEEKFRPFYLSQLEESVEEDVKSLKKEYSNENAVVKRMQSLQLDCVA
IC50 (GST-hRIPK1 (8-327) [1]) [µM],Human hepatocyte CLhep Avg [3] [mL/min/kg],IC50 (GST-hRIPK1 (8-327) [5]) [µM],SMILES,other results
,9.0,0.0001 to 1,"C[C@H]1Oc2cccnc2N(C)C(=O)[C@H]1NC(=O)c1nnc(Cc2ccccc2)o1 [Example 134, 5-Benzyl-N-((2R,3S)-2,5-dimethyl-4-oxo-2,3,4,5-tetrahydropyrido[3,2-b][1,4]oxazepin-3-yl)-1,3,4-oxadiazole-2-carboxamide]",Cyno unbound CL [2]: 140 mL/min/kg; Rat unbound CL [4]: 100 mL/min/kg
1 to 10,,,"CCN1C(=O)[C@@H](NC(=O)c2cc(Cc3ccccc3)on2)COc2ccccc21 [Example 19, (S)-5-benzyl-N-(5-ethyl-4-oxo-2,3,4,5-tetrahydrobenzo[b][1,4]oxazepin-3-yl)isoxazole-3-carboxamide]",
> 10,,,"CN1C(=O)[C@@H](NC(=O)c2ccc(C#N)n2C)COc2ccccc21 [Example 24, (S)-5-cyano-1-methyl-N-(5-methyl-4-oxo-2,3,4,5-tetrahydrobenzo[b][1,4]oxazepin-3-yl)-1H-pyrrole-2-carboxamide]",
,4.2,0.0001 to 1,"CN1C(=O)[C@@H](NC(=O)c2nnc(Cc3ccccc3)o2)COc2cccnc21 [Example 146, (S)-5-benzyl-N-(5-methyl-4-oxo-2,3,4,5-tetrahydropyrido[3,2-b][1,4]oxazepin-3-yl)-1,3,4-oxadiazole-2-carboxamide]",Cyno unbound CL [2]: 39 mL/min/kg; Rat unbound CL [4]: 61 mL/min/kg
> 10,,,"CN1CCCC[C@H](NC(=O)c2nnc(Cc3ccccc3)[nH]2)C1=O [Example 23, (S)-5-benzyl-N-(1-methyl-2-oxoazepan-3-yl)-4H-1,2,4-triazole-3-carboxamide]",
> 10,,,"CC(=O)N[C@H]1COc2ccccc2N(C)C1=O [Example 26, (S)—N-(5-methyl-4-oxo-2,3,4,5-tetrahydrobenzo[b][1,4]oxazepin-3-yl)acetamide]",
,16,0.0001 to 1,"CN1C(=O)[C@@H](NC(=O)c2nnc(Cc3ccccc3)[nH]2)[C@H]2C[C@H]2c2ccccc21 [Example 46A, 5-benzyl-N-((2S)-4-methyl-3-oxo-1,1a,2,3,4,8b-hexahydrobenzo[b]cyclopropa[d]azepin-2-yl)-4H-1,2,4-triazole-3-carboxamide]","efflux ratio at 90 min, 3 μM (P-gp (MDR1)): 16"
> 10,,,"CN1C(=O)[C@@H](NCC(=O)NCc2ccccc2)COc2ccccc21 [Example 18, (S)—N-benzyl-2-((5-methyl-4-oxo-2,3,4,5-tetrahydrobenzo[b][1,4]oxazepin-3-yl)amino)acetamide]",
,4.9,0.0001 to 1,"C[C@H]1Oc2cccnc2N(C)C(=O)[C@H]1NC(=O)c1nnc(Cc2ccccc2)[nH]1 [Example 94, 5-benzyl-N-((2R,3S)-2,5-dimethyl-4-oxo-2,3,4,5-tetrahydropyrido[3,2-b][1,4]oxazepin-3-yl)-4H-1,2,4-triazole-3-carboxamide]",Cyno unbound CL [2]: 40 mL/min/kg; Rat unbound CL [4]: 44 mL/min/kg

# More lines, now with the values behind:
SMILES,IC50 (GST-hRIPK1 (8-327) [1]) [µM],Human hepatocyte CLhep Avg [3] [mL/min/kg],IC50 (GST-hRIPK1 (8-327) [5]) [µM],other results
"O=C(N[C@H]1COC[C@@H]2CCCN2C1=O)c1nnc(Cc2ccccc2)[nH]1 [Example 27, 5-benzyl-N-((4S,9aS)-5-oxohexahydro-1H,3H-pyrrolo[2,1-c][1,4]oxazepin-4-yl)-4H-1,2,4-triazole-3-carboxamide]",> 10,,,
"CN1C(=O)[C@@H](NC(=O)c2nnc(Cc3ccccc3)[nH]2)[C@H]2C[C@H]2c2cccnc21 [Example 75A, 5-benzyl-N-((1aS,2S,8bR)-4-methyl-3-oxo-1,1a,2,3,4,8b-hexahydrocyclopropa[d]pyrido[2,3-b]azepin-2-yl)-4H-1,2,4-triazole-3-carboxamide]",,9.1,,Cyno unbound CL [2]: 93 mL/min/kg; Rat unbound CL [4]: 91 mL/min/kg
"[2H]C([2H])([2H])N1C(=O)[C@@H](NC(=O)c2nn(Cc3ccccc3)cc2F)[C@H]2C[C@H]2c2cc(S(C)(=O)=O)ccc21 [Example 183B, 1-benzyl-4-fluoro-N-((1aS,2S,8bR)-4-trideuteriomethyl-7-(methylsulfonyl)-3-oxo-1,1a,2,3,4,8b-hexahydrobenzo[b]cyclopropa[d]azepin-2-yl)-1H-pyrazole-3-carboxamide]",,5.3,0.0001 to 1,"efflux ratio at 90 min, 3 μM (P-gp (MDR1)): 36"
"CN1CC(NC(=O)c2nnc(Cc3ccccc3)[nH]2)CCc2ccccc21 (centres unmarked) [Example 20, 5-benzyl-N-(1-methyl-2,3,4,5-tetrahydro-1H-benzo[b]azepin-3-yl)-4H-1,2,4-triazole-3-carboxamide]",1 to 10,,,
"Cc1nnc(C(=O)N[C@H]2COc3ccccc3N(C)C2=O)[nH]1 [Example 25, (S)-5-methyl-N-(5-methyl-4-oxo-2,3,4,5-tetrahydrobenzo[b][1,4]oxazepin-3-yl)-4H-1,2,4-triazole-3-carboxamide]",> 10,,,
"O=C(N[C@H]1COC[C@H]2CCCN2C1=O)c1cc(Cc2ccccc2)on1 [Example 21, 5-benzyl-N-((4S,9aR)-5-oxohexahydro-1H,3H-pyrrolo[2,1-c][1,4]oxazepin-4-yl)isoxazole-3-carboxamide]",> 10,,,
"O=C(NC1CCc2ccccc2CC1)c1cc(Cc2ccccc2)on1 [Example 15, 5-benzyl-N-(6,7,8,9-tetrahydro-5H-benzo[7]annulen-7-yl)isoxazole-3-carboxamide]",> 10,,,
"O=C(N[C@@H]1C(=O)Nc2c(F)cc(F)cc2[C@@H]2C[C@H]12)c1nnc(Cc2ccccc2)[nH]1 [Example 83A, 5-benzyl-N-((1aS,2S,8bR)-5,7-difluoro-3-oxo-1,1a,2,3,4,8b-hexahydrobenzo[b]cyclopropa[d]azepin-2-yl)-4H-1,2,4-triazole-3-carboxamide]",,1.0,,Cyno unbound CL [2]: 82 mL/min/kg
"Cc1cc(C(=O)N[C@H]2COc3ccccc3N(C)C2=O)n(Cc2ccccc2)n1 [Example 16, (S)-1-benzyl-3-methyl-N-(5-methyl-4-oxo-2,3,4,5-tetrahydrobenzo[b][1,4]oxazepin-3-yl)-1H-pyrazole-5-carboxamide]",> 10,,,
"C[C@H]1Oc2cccnc2N(C)C(=O)[C@H]1NC(=O)c1ncn(Cc2cccc(C#N)c2)n1 [Example 172, 1-(3-cyanobenzyl)-N-((2R,3S)-2,5-dimethyl-4-oxo-2,3,4,5-tetrahydropyrido[3,2-b][1,4]oxazepin-3-yl)-1H-1,2,4-triazole-3-carboxamide]",,5.3,0.0001 to 1,Rat unbound CL [4]: 65 mL/min/kg
"O=C(N[C@H]1COC[C@@H]2CCCN2C1=O)c1cc(Cc2ccccc2)on1 [Example 22, 5-benzyl-N-((4S,9aS)-5-oxohexahydro-1H,3H-pyrrolo[2,1-c][1,4]oxazepin-4-yl)isoxazole-3-carboxamide]",> 10,,,
"CN1C(=O)[C@@H](NC(=O)c2cnn3c2[C@@H](c2ccccc2)CC3)COc2ccccc21 [Example 17, (R)—N—((S)-5-methyl-4-oxo-2,3,4,5-tetrahydrobenzo[b][1,4]oxazepin-3-yl)-4-phenyl-5,6-dihydro-4H-pyrrolo[1,2-b]pyrazole-3-carboxamide]",> 10,,,
"C[C@H]1Oc2cccnc2N(C)C(=O)[C@H]1NC(=O)c1nn(Cc2ccccc2)cc1F [Example 92, 1-benzyl-N-((2R,3S)-2,5-dimethyl-4-oxo-2,3,4,5-tetrahydropyrido[3,2-b][1,4]oxazepin-3-yl)-4-fluoro-1H-pyrazole-3-carboxamide]",,,0.0001 to 1,Rat unbound CL [4]: 420 mL/min/kg

# Source: patent US10604535B2, “Compounds, compositions and methods” (Denali Therapeutics Inc., priority 2016, dated 2020)
